Reference: PubChem BioAssay (NCI)
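Compound exposure: 48 hours, 5 concentrations, 96-well plates. At the GI50, growth is halved. At the TGI there is no net growth.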

Legend:
Assay in all cases: DTP human tumour cell line panel, 48 h
LOX IMVI melanoma = tested on: LOX IMVI melanoma
SF-295 CNS = tested on: SF-295 CNS
BT-549 breast = tested on: BT-549 breast
CAKI-1 renal = tested on: CAKI-1 renal
SW-620 colon = tested on: SW-620 colon
MDA-MB-435 = tested on: MDA-MB-435
M14 melanoma = tested on: M14 melanoma
MOLT-4 leukemia = tested on: MOLT-4 leukemia
MDA-MB-231 breast = tested on: MDA-MB-231 breast
UO-31 renal = tested on: UO-31 renal

SMILES | GI50 (LOX IMVI melanoma) [µM] | TGI (LOX IMVI melanoma) [µM] | GI50 (SF-295 CNS) [µM] | TGI (SF-295 CNS) [µM] | GI50 (BT-549 breast) [µM] | TGI (BT-549 breast) [µM] | GI50 (CAKI-1 renal) [µM] | TGI (CAKI-1 renal) [µM] | GI50 (SW-620 colon) [µM] | TGI (SW-620 colon) [µM] | GI50 (MDA-MB-435) [µM] | TGI (MDA-MB-435) [µM] | GI50 (M14 melanoma) [µM] | TGI (M14 melanoma) [µM] | GI50 (MOLT-4 leukemia) [µM] | TGI (MOLT-4 leukemia) [µM] | GI50 (MDA-MB-231 breast) [µM] | TGI (MDA-MB-231 breast) [µM] | GI50 (UO-31 renal) [µM] | TGI (UO-31 renal) [µM]
N#CSc1ncnc2nc[nH]c12 | 1.09 | > 91.6 | 2.53 | > 72.6 | > 28.7 | > 100 | 2.01 | 30.1 | 7.85 | > 100 | 3.65 | > 100 | 1.78 | > 100 | 4.28 | > 100 | 11.2 | > 100 | 10.4 | > 100
O=C1C(Cl)=C(N/N=c2/[nH][nH]/c(=N/NC3=C(Cl)C(=O)c4ccccc4C3=O)c3ccccc23)C(=O)c2ccccc21 | 15.3 | 29.9 | 14.2 | 30.5 | 13.5 | 26.8 | 17.7 | 41.4 | 16.6 | 43.3 | 17.8 | 36.6 | 16.9 | 34.8 | 4.9 | 34.6 | 12 | 28.2 | 12.3 | 25.9
C=C(C)[C@@H]1CC[C@]2(C(=O)NCCCN)CC[C@]3(C)[C@H](CC[C@@H]4[C@@]5(C)CC[C@H](O)C(C)(C)[C@@H]5CC[C@]43C)[C@@H]12 | 25.5 | > 100 | 22.6 | 67.3 | 23.8 | 75.9 | 21.9 | > 100 | 22.5 | > 100 | 28.7 | > 100 | 24.7 | > 100 | 12.9 | 52.8 | 21.1 | 76.2 | 38.9 | > 100
CCn1c(-c2nonc2N)nc2cncc(C(=O)N3CCNCC3)c21 | > 25 | > 25 | > 25 | > 25 | > 25 | > 25 | > 25 | > 25 | > 25 | > 25 | > 25 | > 25 | > 25 | > 25 | > 25 | > 25 | > 25 | > 25 | > 25 | > 25
CC12CCC(=O)C=C1CCC1C2CCC2(C)C(C(=O)Cn3cnc4c(=S)nc[nH]c43)CCC12 (stereo not given) | – | > 100 | – | 86.7 | – | > 100 | – | > 100 | – | > 100 | – | 96.4 | – | > 100 | – | > 100 | – | > 100 | – | > 100
O=C(O)CSSCC(=O)O | – | > 100 | – | > 100 | – | > 100 | – | > 100 | – | > 100 | – | > 100 | – | > 100 | – | > 100 | – | > 100 | – | > 100
N#CC(C#N)=Cc1ccc(-c2ccc(-c3nc4ccccc4s3)cc2)o1 | 15.1 | 30.3 | 20.7 | 46 | 32.9 | 96.1 | 25 | > 100 | 7.9 | > 100 | 25.4 | 81.8 | > 100 | > 100 | 14 | > 100 | 19.8 | 37.8 | 20.3 | > 100
CCN(CC)c1ccc(/C=C/c2cc(C)c3ccccc3n2)cc1 | 4.67 | 28.1 | 1.8 | 5.72 | 10.3 | 62.9 | 1.93 | 13.4 | 1.87 | 9.21 | 0.328 | 1.9 | 3.42 | 13.6 | 4.07 | 43.1 | 3.54 | 13.3 | 3.18 | 15
COc1cc2c(cc1OC)-c1ccc3cc4c(cc3c1N(CCN1CCCC1)C2)OCO4 | 0.309 | 1.39 | 0.441 | 3.1 | 1.6 | 9.01 | 0.814 | 11.5 | 0.472 | 2.28 | 1.36 | 6.13 | 0.574 | 1.89 | 0.228 | 3.44 | 1.27 | 3.3 | 1.51 | 4.09
CC1=CC(=O)c2c(O)cccc2C1=O | – | 3.32 | – | 23.9 | – | 3.15 | – | 3.24 | – | 4.15 | – | 3.26 | – | 3.3 | – | 0.762 | – | 3.64 | – | 2.98
CCCN1C(=O)/C(=c2\sc3n(c2=O)C2C(NN=3)N(CC)C(=O)N2CC)c2ccccc21 (stereo not given) | 0.629 | 18.8 | 0.409 | 10.7 | 1.66 | 13.2 | 0.445 | 16.1 | 0.409 | > 100 | 0.196 | 0.445 | 0.413 | 12.4 | 0.811 | > 100 | 1.41 | 12.4 | 0.744 | 17.6
